Measured values: ChEMBL document CHEMBL3864144, “Cochlearoids F-K: Phenolic meroterpenoids from the fungus Ganoderma cochlear and their renoprotective activity” (Bioorg Med Chem Lett, 2016)
Calls of active or inactive are those of the source. The rule behind the calls is not given here.

Assays:
[1] = Cytotoxicity against human HKC8 cells assessed as decrease in cell viability at 20 uM after 24 hrs by MTT assay; format: toxicity, cell-based; conditions: hkc8, 24 h
[2] = Cytotoxicity against human HKC8 cells assessed as decrease in cell viability at 5 uM after 24 hrs by MTT assay; format: toxicity, cell-based; conditions: hkc8, 24 h
HKC8 = assay: Renoprotective activity in human HKC8 cells assessed as inhibition of TGF-beta1-induced fibronectin production preincubated for 1 hr followed by TGF-beta1 induction measured after 24 hrs by solid-phase sandwich ELISA; format: functional, cell-based
[3] = Cytotoxicity against human HKC8 cells assessed as decrease in cell viability at 10 uM after 24 hrs by MTT assay; format: toxicity, cell-based; conditions: hkc8, 24 h
[4] = Cytotoxicity against human HKC8 cells assessed as decrease in cell viability at 2.5 uM after 24 hrs by MTT assay; format: toxicity, cell-based; conditions: hkc8, 24 h

Structure (SMILES)	Activity [1]	Activity [2]	inhibition (HKC8)	Activity [3]	Activity [4]
CC(C)=CCC/C(C)=C/CC/C(=C/Cc1cc2oc(=O)c(CC/C=C(\C)CCC=C(C)C)c(C(=O)c3cc(O)ccc3O)c2cc1O)CO	Toxic	Non-Toxic	Active		
CC(C)=CCC/C(C)=C/CC/C(=C/Cc1cc(O)cc2c1oc(=O)c1c(O)ccc(O)c12)CO	Toxic		Active	Non-Toxic	
CC(C)=CCC/C(C)=C/CC/C(=C/Cc1cc(O)cc2c1oc(=O)c1c(O)ccc(O)c12)C(=O)O	Toxic		Active		Non-Toxic
CC(C)=CCC/C(C)=C/CC/C(=C/Cc1cc(O)cc2c(C(=O)c3cc(O)ccc3O)c(CC/C=C(\C)CCC=C(C)C)c(=O)oc12)CO	Toxic	Non-Toxic	Active		
CC(C)=CCC/C(C)=C/CC/C(=C/Cc1cc2oc(=O)c3c(O)ccc(O)c3c2cc1O)CO	Toxic				Non-Toxic
CC(C)=CCC/C(=C/Cc1cc2oc(=O)c3c(O)ccc(O)c3c2cc1O)C(=O)O	Toxic	Non-Toxic	Active		
